Measured values reported in patent US11142515B2, “Pyrazolyl-ureas as kinase inhibitors” (RESPIVERT LIMITED, priority 2014, dated 2021).
pIC50: −log10 of the molar value.

Assays:
d-U937 cells = experiment: Cell viability: MTT assay in differentiated U937 cells; format: cell-based, human; settings: 10 μg/mL
Method in brief: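 Differentiated U937 cells exposed to compound at a final 10 μg/mL, either 4 h in 5% FCS RPMI1640 or 24 h in 10% FCS RPMI1640. MTT added for 1 h, formazan dissolved in DMSO, absorbance read at 550 nm; % viability loss relative to 0.5% DMSO vehicle, with increases shown as negative values.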

Syk = biological target: T1, Syk (Homo sapiens, UniProt P43405); experiment: Syk enzyme inhibition (Z-LYTE FRET); format: biochemical; settings: Table 2A
T1 construct: purchased Life Technologies
Method in brief: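 Enzyme (1000, 1400 or 2000 ng/mL stocks for c-Src, Hck, Syk respectively) preincubated 2 h at RT with compound (0.0012–40 μg/mL series), then FRET peptide plus ATP (800 μM c-Src; 60 μM Hck, Syk stocks) for 1 h. Protease development 1 h; phosphorylation from coumarin/fluorescein emission ratio.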

c-Src = biological target: T2, c-Src (Homo sapiens, UniProt P12931); experiment: c-Src enzyme inhibition (Z-LYTE FRET); format: biochemical; settings: Table 2A
T2 construct: purchased Life Technologies
Description: The enzyme inhibitory activities of compounds disclosed herein were determined by FRET using synthetic peptides labelled with both donor and acceptor fluorophores (Z-LYTE, Life Technologies, Paisley, UK).
The relevant enzyme (1000 ng/mL, 1400 ng/mL or 2000 ng/mL respectively, 2.5 μL) was incubated with the test compound (either 40 μg/mL, 12 μg/mL, 4 μg/mL, 1.2 μg/mL, 0.4 μg/mL, 0.12 μg/mL, 0.04 μg/mL, 0.012 μg/mL, 0.004 μg/mL or 0.0012 μg/mL, 2.5 μL each) for 2 h at RT. The FRET peptides (8 μM, 2.5 μL), and appropriate ATP solutions (2.5 μL, 800 μM for c-Src, and 60 μM ATP for HCK and Syk) were then added to the enzyme/compound mixtures and incubated for 1 h at RT. Development reagent (protease, 5 μL) was added for 1 h prior to detection in a fluorescence microplate reader (EnVision, Perkin Elmer).
In all cases, the site-specific protease cleaves non-phosphorylated peptide only and eliminates the FRET signal. Phosphorylation levels of each reaction were calculated using the ratio of coumarin emission (donor) over fluorescein emission (acceptor), for which low ratios indicate high phosphorylation and high ratios indicate low phosphorylation levels.

p38MAPKγ (MAPK12) = biological target: T3, p38MAPKγ (MAPK12) (Homo sapiens, UniProt P53778); experiment: p38 MAPKγ enzyme inhibition (Z-LYTE FRET); format: biochemical; settings: Table 2A; read-out: IC50 Values for Enzyme Inhibition p38 MAPKγ
T3 construct: purchased Life Technologies
T3 sequence (P53778 1-367): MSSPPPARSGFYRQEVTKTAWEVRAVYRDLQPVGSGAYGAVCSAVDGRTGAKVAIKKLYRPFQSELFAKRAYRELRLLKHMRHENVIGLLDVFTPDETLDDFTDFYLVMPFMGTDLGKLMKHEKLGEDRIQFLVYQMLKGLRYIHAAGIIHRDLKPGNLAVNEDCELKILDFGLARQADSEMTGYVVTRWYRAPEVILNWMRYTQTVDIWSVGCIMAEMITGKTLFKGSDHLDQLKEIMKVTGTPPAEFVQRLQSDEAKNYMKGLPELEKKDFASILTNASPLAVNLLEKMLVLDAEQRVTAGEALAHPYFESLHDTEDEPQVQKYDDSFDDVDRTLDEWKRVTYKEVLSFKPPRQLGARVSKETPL
Method in brief: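 Z-LYTE read-out: after 1 h protease development, only non-phosphorylated peptide is cleaved, and the donor/acceptor (coumarin/fluorescein) ratio reports phosphorylation. Beforehand, enzyme and compound (stock concentrations 0.0012–40 μg/mL) were preincubated 2 h at RT, then the kinase reaction ran 1 h at RT with peptide and ATP (8 μM and 400 μM stocks).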

T2 sequence (P12931 whole entry): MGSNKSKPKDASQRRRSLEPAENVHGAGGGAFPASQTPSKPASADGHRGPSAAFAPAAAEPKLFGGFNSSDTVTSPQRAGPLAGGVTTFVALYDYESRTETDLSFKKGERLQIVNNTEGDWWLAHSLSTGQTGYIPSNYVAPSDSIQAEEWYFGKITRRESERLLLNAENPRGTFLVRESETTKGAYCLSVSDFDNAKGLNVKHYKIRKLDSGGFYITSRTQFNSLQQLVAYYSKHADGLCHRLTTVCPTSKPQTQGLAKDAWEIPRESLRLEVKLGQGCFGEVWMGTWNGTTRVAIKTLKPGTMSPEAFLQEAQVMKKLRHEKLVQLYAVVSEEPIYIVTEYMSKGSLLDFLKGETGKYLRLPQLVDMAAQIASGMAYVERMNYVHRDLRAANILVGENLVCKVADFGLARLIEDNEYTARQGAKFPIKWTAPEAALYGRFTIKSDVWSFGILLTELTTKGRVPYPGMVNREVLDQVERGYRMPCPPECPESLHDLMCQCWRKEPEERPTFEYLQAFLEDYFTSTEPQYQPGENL

SMILES | MTT Assay Cell viability at time point indicated in d-U937 Cells, 4 h (d-U937 cells) | MTT Assay Cell viability at time point indicated in d-U937 Cells, 24 h (d-U937 cells) | pIC50 (Syk) | pIC50 (c-Src) | pIC50 (p38MAPKγ (MAPK12))
CC(C)(C)c1cc(NC(=O)Nc2ccc(OCc3ccnc(Nc4cncc(C5CC5)n4)c3)c3ccccc23)n(-c2ccc(CO)cc2)n1 [Example 25] | − (−ve and +ve indicate the value is below and above, respectively, the no significant effect threshold defined as 30% inhibition at 10 μg/mL at the time point indicated) | + (−ve and +ve indicate the value is below and above, respectively, the no significant effect threshold defined as 30% inhibition at 10 μg/mL at the time point indicated) | 5.65 | 8.00 | 7.31
Cc1ccc(-n2nc(C(C)(C)C)cc2NC(=O)Nc2ccc(OCc3ccnc(Nc4cnc(CO)cn4)c3)c3ccccc23)s1 [Example 26] | − (−ve and +ve indicate the value is below and above, respectively, the no significant effect threshold defined as 30% inhibition at 10 μg/mL at the time point indicated) | + (−ve and +ve indicate the value is below and above, respectively, the no significant effect threshold defined as 30% inhibition at 10 μg/mL at the time point indicated) | 5.80 | 7.25 | 7.13
Cc1cc(-n2nc(C(C)(C)C)cc2NC(=O)Nc2ccc(OCc3ccnc(Nc4cncc(C5CC5)n4)c3)c3ccccc23)cs1 [Example 27] | − (−ve and +ve indicate the value is below and above, respectively, the no significant effect threshold defined as 30% inhibition at 10 μg/mL at the time point indicated) | + (−ve and +ve indicate the value is below and above, respectively, the no significant effect threshold defined as 30% inhibition at 10 μg/mL at the time point indicated) | 5.04 | 7.38 | 6.42
CNC(=O)Cc1cncc(Nc2cc(COc3ccc(NC(=O)Nc4cc(C(C)(C)C)nn4-c4ccc(C)cc4)c4ccccc34)ccn2)n1 [Example 28] | − (−ve and +ve indicate the value is below and above, respectively, the no significant effect threshold defined as 30% inhibition at 10 μg/mL at the time point indicated) | + (−ve and +ve indicate the value is below and above, respectively, the no significant effect threshold defined as 30% inhibition at 10 μg/mL at the time point indicated) | < 4.83 | 7.49 | 6.97
Cc1ccc(-n2nc(C(C)(C)C)cc2NC(=O)Nc2ccc(OCc3ccnc(Nc4cnc(CC(=O)N(C)C)cn4)c3)c3ccccc23)cc1 [Example 29] | − (−ve and +ve indicate the value is below and above, respectively, the no significant effect threshold defined as 30% inhibition at 10 μg/mL at the time point indicated) | + (−ve and +ve indicate the value is below and above, respectively, the no significant effect threshold defined as 30% inhibition at 10 μg/mL at the time point indicated) | < 4.83 | 7.55 | 7.10
Cc1ccc(-n2nc(C(C)(C)C)cc2NC(=O)Nc2ccc(OCc3ccnc(Nc4cnc(CC(N)=O)cn4)c3)c3ccccc23)cc1 [Example 30] | − (−ve and +ve indicate the value is below and above, respectively, the no significant effect threshold defined as 30% inhibition at 10 μg/mL at the time point indicated) | − (−ve and +ve indicate the value is below and above, respectively, the no significant effect threshold defined as 30% inhibition at 10 μg/mL at the time point indicated) | < 4.82 | 7.72 | 7.54
Cc1ccc(-n2nc(C(C)(C)C)cc2NC(=O)Nc2ccc(OCc3ccnc(Nc4cncc(CC(N)=O)n4)c3)c3ccccc23)cc1 [Example 32] | − (−ve and +ve indicate the value is below and above, respectively, the no significant effect threshold defined as 30% inhibition at 10 μg/mL at the time point indicated) | − (−ve and +ve indicate the value is below and above, respectively, the no significant effect threshold defined as 30% inhibition at 10 μg/mL at the time point indicated) | < 4.82 | 7.60 | 7.43
CNC(=O)Cc1cnc(Nc2cc(COc3ccc(NC(=O)Nc4cc(C(C)(C)C)nn4-c4ccc(C)cc4)c4ccccc34)ccn2)cn1 [Example 33] | − (−ve and +ve indicate the value is below and above, respectively, the no significant effect threshold defined as 30% inhibition at 10 μg/mL at the time point indicated) | − (−ve and +ve indicate the value is below and above, respectively, the no significant effect threshold defined as 30% inhibition at 10 μg/mL at the time point indicated) | < 4.83 | 7.46 | 7.28
CC(C)(C)c1cc(NC(=O)Nc2ccc(OCc3ccnc(Nc4cncc(C5CC5)n4)c3)c3ccccc23)n(-c2ccc(O)cc2)n1 [Example 34] | − (−ve and +ve indicate the value is below and above, respectively, the no significant effect threshold defined as 30% inhibition at 10 μg/mL at the time point indicated) | − (−ve and +ve indicate the value is below and above, respectively, the no significant effect threshold defined as 30% inhibition at 10 μg/mL at the time point indicated) | 5.37 | 7.74 | 6.56
Cc1ccc(-n2nc(C(C)(C)C)cc2NC(=O)Nc2ccc(OCc3ccnc(Nc4cnc(C(=O)N5CCOCC5)cn4)c3)c3ccccc23)cc1 [Example 35] | − (−ve and +ve indicate the value is below and above, respectively, the no significant effect threshold defined as 30% inhibition at 10 μg/mL at the time point indicated) | − (−ve and +ve indicate the value is below and above, respectively, the no significant effect threshold defined as 30% inhibition at 10 μg/mL at the time point indicated) | < 4.85 | 7.29 | 6.77
Cc1ccc(-n2nc(C(C)(C)C)cc2NC(=O)Nc2ccc(OCc3ccnc(Nc4cnc(C(=O)N5CCCC5)cn4)c3)c3ccccc23)cc1 [Example 36] | − (−ve and +ve indicate the value is below and above, respectively, the no significant effect threshold defined as 30% inhibition at 10 μg/mL at the time point indicated) | − (−ve and +ve indicate the value is below and above, respectively, the no significant effect threshold defined as 30% inhibition at 10 μg/mL at the time point indicated) | < 4.84 | 7.21 | 5.97
CCc1cnc(Nc2cc(COc3ccc(NC(=O)Nc4cc(C(C)(C)C)nn4-c4ccc(C)cc4)c4ccccc34)ccn2)cn1 [Example 37] | − (−ve and +ve indicate the value is below and above, respectively, the no significant effect threshold defined as 30% inhibition at 10 μg/mL at the time point indicated) | − (−ve and +ve indicate the value is below and above, respectively, the no significant effect threshold defined as 30% inhibition at 10 μg/mL at the time point indicated) | < 4.80 | 6.29 | 6.24
